Laboratory results from patent US9642831B2, “Substituted chromanes and method of use” (AbbVie S.á.r.l., priority 2014, dated 2017).

Biological target: F508delCFTR (Homo sapiens, UniProt P13569, DEL508-508)
Assay: Cell Surface Expression-Horse Radish Peroxidase (CSE-HRP) assay
Type: cell-based
Set-up: expressed in transfected cells; host or cells: CFBE41o- human lung derived epithelial cell line, doxycycline-inducible
Details: CFBE4lo-F508delCFTR-HRP cells; for EC50: 18-24 hours at 33° C., 8-point curve, highest concentration 20 μM, luminescence readout; for Emax: maximum % activity at any tested concentration, normalized to on-plate positive control (3 μM Example 1)
How it was run: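 Following 18-24 h compound exposure at 33° C. Expression was doxycycline-induced beforehand. % activity versus DMSO and a 3 μM corrector control gave maximum activity and EC50 from a variable-Hill sigmoidal fit.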

F508delCFTR, sequence (P13569 with tags, fused parts or gaps DEL508-508): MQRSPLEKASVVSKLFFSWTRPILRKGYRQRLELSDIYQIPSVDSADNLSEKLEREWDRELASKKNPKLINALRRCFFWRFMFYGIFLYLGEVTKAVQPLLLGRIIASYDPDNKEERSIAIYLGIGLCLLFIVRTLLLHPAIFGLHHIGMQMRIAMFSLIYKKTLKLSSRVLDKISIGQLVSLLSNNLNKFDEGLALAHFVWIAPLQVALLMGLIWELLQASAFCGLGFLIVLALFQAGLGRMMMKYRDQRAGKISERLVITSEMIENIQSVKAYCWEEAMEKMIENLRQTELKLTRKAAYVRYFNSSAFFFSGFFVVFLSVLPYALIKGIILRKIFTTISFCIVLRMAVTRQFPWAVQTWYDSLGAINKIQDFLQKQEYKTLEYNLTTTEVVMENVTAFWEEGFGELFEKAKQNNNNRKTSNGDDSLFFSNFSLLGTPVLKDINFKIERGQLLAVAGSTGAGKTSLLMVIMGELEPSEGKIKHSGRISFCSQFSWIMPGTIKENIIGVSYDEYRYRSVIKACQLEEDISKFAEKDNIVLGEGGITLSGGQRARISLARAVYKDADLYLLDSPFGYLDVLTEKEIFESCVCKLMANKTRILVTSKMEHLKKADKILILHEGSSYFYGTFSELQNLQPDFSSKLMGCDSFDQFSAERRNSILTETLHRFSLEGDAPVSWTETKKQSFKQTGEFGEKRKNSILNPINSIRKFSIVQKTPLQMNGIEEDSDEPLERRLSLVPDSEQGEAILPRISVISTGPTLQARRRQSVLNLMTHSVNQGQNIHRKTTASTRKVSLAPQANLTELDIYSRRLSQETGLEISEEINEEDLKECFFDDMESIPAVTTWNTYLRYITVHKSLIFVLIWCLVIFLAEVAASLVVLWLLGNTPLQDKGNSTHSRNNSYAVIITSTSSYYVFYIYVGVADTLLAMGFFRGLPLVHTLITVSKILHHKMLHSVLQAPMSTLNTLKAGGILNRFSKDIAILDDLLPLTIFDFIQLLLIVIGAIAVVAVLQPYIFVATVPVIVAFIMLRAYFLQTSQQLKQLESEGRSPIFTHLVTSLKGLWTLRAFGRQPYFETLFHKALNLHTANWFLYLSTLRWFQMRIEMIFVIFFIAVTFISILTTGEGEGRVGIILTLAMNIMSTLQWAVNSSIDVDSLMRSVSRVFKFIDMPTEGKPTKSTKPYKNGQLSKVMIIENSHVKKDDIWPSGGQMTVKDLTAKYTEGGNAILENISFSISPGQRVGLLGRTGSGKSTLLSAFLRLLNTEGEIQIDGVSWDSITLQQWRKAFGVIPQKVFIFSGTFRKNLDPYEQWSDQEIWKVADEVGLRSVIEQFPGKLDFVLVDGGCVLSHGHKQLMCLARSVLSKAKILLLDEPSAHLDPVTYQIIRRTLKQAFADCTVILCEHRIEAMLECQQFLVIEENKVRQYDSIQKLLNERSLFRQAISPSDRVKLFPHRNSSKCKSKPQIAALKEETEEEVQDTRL

EC50 | Emax | Structure (SMILES)
5840 nM | 58% | COC(=O)c1cccc([C@H]2C[C@H](NC(=O)C3(c4ccc5c(c4)OC(F)(F)O5)CC3)c3ccccc3O2)c1 [Example 7, methyl 3-[(2R,4S)-4-({[1-(2,2-difluoro-1,3-benzodioxol-5-yl)cyclopropyl]carbonyl}amino)-3,4-dihydro-2H-chromen-2-yl]benzoate]
1750 nM | 98% | COC(=O)c1cccc([C@H]2C[C@@H](NC(=O)C3(c4ccc5c(c4)OC(F)(F)O5)CC3)c3ccccc3O2)c1 [Example 8, methyl 3-[(2R,4R)-4-({[1-(2,2-difluoro-1,3-benzodioxol-5-yl)cyclopropyl]carbonyl}amino)-3,4-dihydro-2H-chromen-2-yl]benzoate]
4100 nM | 112% | O=C(O)c1cccc([C@H]2C[C@H](NC(=O)C3(c4ccc5c(c4)OC(F)(F)O5)CC3)c3ccccc3O2)c1 [Example 10, 3-[(2R,4S)-4-({[1-(2,2-difluoro-1,3-benzodioxol-5-yl)cyclopropyl]carbonyl}amino)-3,4-dihydro-2H-chromen-2-yl]benzoic acid]
910 nM | 102% | COC(=O)c1cccc([C@H]2C[C@@H](NC(=O)C3(c4ccc5c(c4)OC(F)(F)O5)CC3)c3cc(C)ccc3O2)c1 [Example 11, methyl 3-[(2R,4R)-4-({[1-(2,2-difluoro-1,3-benzodioxol-5-yl)cyclopropyl]carbonyl}amino)-6-methyl-3,4-dihydro-2H-chromen-2-yl]benzoate]
5470 nM | 58% | COC(=O)c1cccc([C@H]2C[C@H](NC(=O)C3(c4ccc5c(c4)OC(F)(F)O5)CC3)c3cc(C)ccc3O2)c1 [Example 12, methyl 3-[(2R,4S)-4-({[1-(2,2-difluoro-1,3-benzodioxol-5-yl)cyclopropyl]carbonyl}amino)-6-methyl-3,4-dihydro-2H-chromen-2-yl]benzoate]
4570 nM | 118% | Cc1ccc2c(c1)[C@@H](NC(=O)C1(c3ccc4c(c3)OC(F)(F)O4)CC1)C[C@H](c1cccc(C(=O)O)c1)O2 [Example 13, 3-[(2R,4S)-4-({[1-(2,2-difluoro-1,3-benzodioxol-5-yl)cyclopropyl]carbonyl}amino)-6-methyl-3,4-dihydro-2H-chromen-2-yl]benzoic acid]
2470 nM | 101% | Cc1ccc2c(c1)O[C@@H](c1cccc(C(=O)O)c1)C[C@@H]2NC(=O)C1(c2ccc3c(c2)OC(F)(F)O3)CC1 [Example 15, 3-[(2R,4S)-4-({[1-(2,2-difluoro-1,3-benzodioxol-5-yl)cyclopropyl]carbonyl}amino)-7-methyl-3,4-dihydro-2H-chromen-2-yl]benzoic acid]
370 nM | 108% | Cc1ccc2c(c1)O[C@@H](c1cccc(C(=O)O)c1)C[C@H]2NC(=O)C1(c2ccc3c(c2)OC(F)(F)O3)CC1 [Example 16, 3-[(2R,4R)-4-({[1-(2,2-difluoro-1,3-benzodioxol-5-yl)cyclopropyl]carbonyl}amino)-7-methyl-3,4-dihydro-2H-chromen-2-yl]benzoic acid]
2640 nM | 78% | COC(=O)c1cccc([C@H]2C[C@H](NC(=O)C3(c4ccc5c(c4)OC(F)(F)O5)CC3)c3ccc(C)cc3O2)c1 [Example 17, methyl 3-[(2R,4S)-4-({[1-(2,2-difluoro-1,3-benzodioxol-5-yl)cyclopropyl]carbonyl}amino)-7-methyl-3,4-dihydro-2H-chromen-2-yl]benzoate]
350 nM | 113% | COC(=O)c1cccc([C@H]2C[C@@H](NC(=O)C3(c4ccc5c(c4)OC(F)(F)O5)CC3)c3ccc(C)cc3O2)c1 [Example 18, methyl 3-[(2R,4R)-4-({[1-(2,2-difluoro-1,3-benzodioxol-5-yl)cyclopropyl]carbonyl}amino)-7-methyl-3,4-dihydro-2H-chromen-2-yl]benzoate]
4620 nM | 30% | COc1cccc([C@H]2C[C@@H](NC(=O)C3(c4ccc5c(c4)OC(F)(F)O5)CC3)c3ccc(O)cc3O2)c1 [Example 20, 1-(2,2-difluoro-1,3-benzodioxol-5-yl)-N-[(2R,4R)-7-hydroxy-2-(3-methoxyphenyl)-3,4-dihydro-2H-chromen-4-yl]cyclopropanecarboxamide]
800 nM | 142% | COC(=O)c1cccc([C@H]2C[C@@H](NC(=O)C3(c4ccc5c(c4)OC(F)(F)O5)CC3)c3cc(OC)ccc3O2)c1 [Example 21, methyl 3-[(2R,4R)-4-({[1-(2,2-difluoro-1,3-benzodioxol-5-yl)cyclopropyl]carbonyl}amino)-6-methoxy-3,4-dihydro-2H-chromen-2-yl]benzoate]
≥ 20000 nM | 12% | O=C(O)c1cccc([C@H]2C[C@@H](NC(=O)C3(c4ccc5c(c4)OC(F)(F)O5)CC3)c3ccc(O)cc3O2)c1 [Example 23, 3-[(2R,4R)-4-({[1-(2,2-difluoro-1,3-benzodioxol-5-yl)cyclopropyl]carbonyl}amino)-7-hydroxy-3,4-dihydro-2H-chromen-2-yl]benzoic acid]
1160 nM | 82% | COc1ccc2c(c1)O[C@@H](C1CCCC(C(=O)O)C1)C[C@H]2NC(=O)C1(c2ccc3c(c2)OC(F)(F)O3)CC1 (stereo partly drawn) [Example 35, 3-[(2R,4R)-4-({[1-(2,2-difluoro-1,3-benzodioxol-5-yl)cyclopropyl]carbonyl}amino)-7-methoxy-3,4-dihydro-2H-chromen-2-yl]cyclohexanecarboxylic acid]
1820 nM | 78% | O=C(O)C1CCCC([C@H]2C[C@@H](NC(=O)C3(c4ccc5c(c4)OC(F)(F)O5)CC3)c3ccc(F)cc3O2)C1 (stereo partly drawn) [Example 36, 3-[(2R,4R)-4-({[1-(2,2-difluoro-1,3-benzodioxol-5-yl)cyclopropyl]carbonyl}amino)-7-fluoro-3,4-dihydro-2H-chromen-2-yl]cyclohexanecarboxylic acid]
1720 nM | 82% | COC(=O)c1cccc([C@H]2C[C@@H](NC(=O)C3(c4ccc5c(c4)OC(F)(F)O5)CC3)c3ccc(F)cc3O2)c1 [Example 39, methyl 3-[(2R,4R)-4-({[1-(2,2-difluoro-1,3-benzodioxol-5-yl)cyclopropyl]carbonyl}amino)-7-fluoro-3,4-dihydro-2H-chromen-2-yl]benzoate]
≥ 20000 nM | 5% | O=C(O)c1ccc2c(c1)OCCC2NC(=O)C1(c2ccc3c(c2)OC(F)(F)O3)CC1 (centres unmarked) [Example 42, 4-({[1-(2,2-difluoro-1,3-benzodioxol-5-yl)cyclopropyl]carbonyl}amino)-3,4-dihydro-2H-chromene-7-carboxylic acid]
850 nM | 78% | Cc1ccc2c(c1)O[C@@H](c1cccc(C(=O)NC3CCC(C)(C(=O)O)C3)c1)C[C@H]2NC(=O)C1(c2ccc3c(c2)OC(F)(F)O3)CC1 (stereo partly drawn) [Example 43, 3-({3-[(2R,4R)-4-({[1-(2,2-difluoro-1,3-benzodioxol-5-yl)cyclopropyl]carbonyl}amino)-7-methyl-3,4-dihydro-2H-chromen-2-yl]benzoyl}amino)-1-methylcyclopentanecarboxylic acid]
≥ 20000 nM | 14% | COc1cccc([C@H]2C[C@@H](NC(=O)C3(c4ccc5c(c4)OC(F)(F)O5)CC3)c3cc(C(=O)O)ccc3O2)c1 [Example 44, (2R,4R)-4-({[1-(2,2-difluoro-1,3-benzodioxol-5-yl)cyclopropyl]carbonyl}amino)-2-(3-methoxyphenyl)-3,4-dihydro-2H-chromene-6-carboxylic acid]
